Where two headings read alike, the source gives them in different places.
Legend:
[1] = target: T1, neurokinin-1 (NK-1) receptor (Homo sapiens, UniProt P25103); test: NK-1 Binding assay ([125I] Substance P competition, U373 cell membranes)
T1 construct: a human glioblastoma-astrocytoma cell line that endogenously expresses the neurokinin-1 (NK-1) receptor; endogenous in cells; host or cells: U373 human glioblastoma-astrocytoma cells (membranes)
How it was run: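 Membranes were prepared from U373 human glioblastoma-astrocytoma cells, which express NK-1 endogenously, in 50 mM Tris-HCl pH 7.4 with 3 mM MnCl2, BSA and protease inhibitors. IC50 taken as the midpoint of the specific-binding displacement curve.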

[2] = target: T2, human serotonin transporters (Homo sapiens, UniProt P31645); test: Serotonin transporter binding assay ([3H]-citalopram competition, HEK-hSERT cell membranes)
T2 construct: expressed in transfected cells
How it was run: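 Membranes from HEK-293 cells stably expressing hSERT incubated 1 hr at 25 °C with 1 nM [3H]-citalopram and test compound in 50 mM Tris pH 7.4, 120 mM NaCl, 5 mM KCl; filtration read-out. Nonspecific binding: 10 μM fluoxetine. IC50 from displacement curve; Ki via Cheng–Prusoff.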

[3] = Table 1, U373 membranes, [125I] Substance P displacement, read-out: NK-1 IC50
[4] = Table 1, HEK-hSERT membranes, [3H]-citalopram displacement, read-out: SERT IC50
[5] = Table 2, U373 membranes, [125I] Substance P displacement, read-out: NK-1 IC50
[6] = Table 2, HEK-hSERT membranes, [3H]-citalopram displacement, read-out: SERT IC50

T2 sequence (P31645 whole entry): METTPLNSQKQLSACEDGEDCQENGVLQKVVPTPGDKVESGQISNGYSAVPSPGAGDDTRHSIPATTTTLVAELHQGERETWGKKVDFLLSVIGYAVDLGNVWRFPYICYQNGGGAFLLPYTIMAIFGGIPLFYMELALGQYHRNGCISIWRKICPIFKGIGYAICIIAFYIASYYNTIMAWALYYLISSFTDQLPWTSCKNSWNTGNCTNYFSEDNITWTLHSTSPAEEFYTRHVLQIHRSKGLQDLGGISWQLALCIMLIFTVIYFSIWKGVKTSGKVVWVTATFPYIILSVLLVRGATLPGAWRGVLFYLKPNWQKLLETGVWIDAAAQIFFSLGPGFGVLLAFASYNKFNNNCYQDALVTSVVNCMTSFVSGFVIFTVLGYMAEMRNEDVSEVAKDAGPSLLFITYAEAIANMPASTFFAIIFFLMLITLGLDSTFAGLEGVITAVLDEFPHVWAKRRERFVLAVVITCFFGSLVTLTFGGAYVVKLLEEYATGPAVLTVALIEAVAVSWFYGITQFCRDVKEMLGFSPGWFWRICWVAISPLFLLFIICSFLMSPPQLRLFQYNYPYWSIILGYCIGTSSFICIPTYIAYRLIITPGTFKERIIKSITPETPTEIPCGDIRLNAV
T1 sequence (P25103 whole entry): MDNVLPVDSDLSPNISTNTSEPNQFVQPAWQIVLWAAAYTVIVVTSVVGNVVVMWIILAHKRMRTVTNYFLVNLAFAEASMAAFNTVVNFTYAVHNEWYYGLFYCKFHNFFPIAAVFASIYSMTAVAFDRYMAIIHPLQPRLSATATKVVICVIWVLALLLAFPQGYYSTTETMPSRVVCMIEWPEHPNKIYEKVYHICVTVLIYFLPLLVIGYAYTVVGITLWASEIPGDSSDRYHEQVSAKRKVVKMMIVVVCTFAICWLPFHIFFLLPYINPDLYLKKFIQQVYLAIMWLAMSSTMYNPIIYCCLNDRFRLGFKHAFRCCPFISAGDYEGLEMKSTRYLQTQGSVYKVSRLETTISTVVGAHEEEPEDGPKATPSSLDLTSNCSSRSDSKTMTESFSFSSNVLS

| SMILES | IC50 [1, 3] | IC50 [2, 4] | IC50 [1, 5] | IC50 [2, 6] | also measured |
| --- | --- | --- | --- | --- | --- |
| CCOc1cccc(-c2cc(COCC3(c4ccccc4)CCNCC3)cc(C(F)(F)F)c2)c1 | 100 to 300 nM | 0.01 to 100 nM | – | – | – |
| Fc1cnc(Cl)c(-c2cc(COCC3(c4ccccc4)CCNCC3)cc(C(F)(F)F)c2)c1 | – | – | 100 to 300 nM | 0.01 to 100 nM | – |
| N#Cc1cc(COCC2(c3ccccc3)CCNCC2)cc(-c2ccc(F)cc2)c1 | – | – | 0.01 to 100 nM | 0.01 to 100 nM | – |
| N#Cc1c(F)c(F)c(-c2cc(COCC3(c4ccccc4)CCNCC3)cc(C(F)(F)F)c2)c(F)c1F | – | – | 0.01 to 100 nM | 0.01 to 100 nM | – |
| FC(F)(F)c1cc(COCC2(c3ccccc3)CCNCC2)cc(-c2ccc3cnccc3c2)c1 | 100 to 300 nM | 0.01 to 100 nM | – | – | – |
| FC(F)(F)c1cc(COCC2(c3ccccc3)CCNCC2)cc(-c2ccc(-c3ccccc3)cc2)c1 | 100 to 300 nM | 0.01 to 100 nM | – | – | – |
| CN1CCC(COCc2cc(-c3cccc(F)c3)cc(C(F)(F)F)c2)(c2ccccc2)CC1 | – | – | 0.01 to 100 nM | – | IC50 [2]: 0.01 to 100 nM |
| Cc1ccc(-c2cc(COCC3(c4ccccc4)CCNCC3)cc(C(F)(F)F)c2)c2ccccc12 | – | – | > 300 nM | 100 to 300 nM | – |
| OCc1ccccc1-c1cc(COCC2(c3ccccc3)CCNCC2)cc(C(F)(F)F)c1 | 100 to 300 nM | 0.01 to 100 nM | – | – | – |
| CN1CCC(COCc2cc(-c3ccc(C#N)cc3)cc(C(F)(F)F)c2)(c2ccc(F)cc2)CC1 | 0.01 to 100 nM | – | – | – | IC50 [2]: 0.01 to 100 nM |
| Oc1cccc(-c2cc(COCC3(c4ccccc4)CCNCC3)cc(C(F)(F)F)c2)c1 | 0.01 to 100 nM | 0.01 to 100 nM | – | – | – |
| Cc1cc(C#N)ccc1-c1cc(COCC2(c3ccccc3)CCNCC2)cc(C(F)(F)F)c1 | – | – | 0.01 to 100 nM | 0.01 to 100 nM | – |
| CN1CCC(COCc2cc(-c3ccc(C#N)cc3)cc(C(F)(F)F)c2)(c2ccc(F)c(F)c2)CC1 | – | – | 0.01 to 100 nM | – | IC50 [2]: 0.01 to 100 nM |
| COc1cc(F)c(-c2cc(COCC3(c4ccccc4)CCNCC3)cc(C(F)(F)F)c2)cc1F | – | – | 0.01 to 100 nM | 0.01 to 100 nM | – |
| Nc1cccc(-c2cc(COCC3(c4ccccc4)CCNCC3)cc(C(F)(F)F)c2)c1 | 0.01 to 100 nM | 0.01 to 100 nM | – | – | – |
| COc1c(C)cc(-c2ccc(C#N)cc2)cc1COCC1(c2ccccc2)CCNCC1 | – | – | 0.01 to 100 nM | 0.01 to 100 nM | – |
| CCCOc1cccc(-c2cc(COCC3(c4ccccc4)CCNCC3)cc(C(F)(F)F)c2)c1 | – | – | > 300 nM | 100 to 300 nM | – |
| COc1ccc(-c2ccc(C#N)nc2)cc1COCC1(c2ccccc2)CCNCC1 | 100 to 300 nM | 0.01 to 100 nM | – | – | – |

| SMILES | IC50 [1, 3] | IC50 [2, 4] | IC50 [1, 5] | IC50 [2, 6] | also measured |
| --- | --- | --- | --- | --- | --- |
| CC(C)N1CCC(COCc2cc(-c3ccc(C#N)cc3)cc(C(F)(F)F)c2)(c2ccccc2)CC1 | – | – | – | > 300 nM | IC50 [1]: 0.01 to 100 nM |
| COc1ccc(-c2cc(COCC3(c4ccccc4)CCNCC3)cc(C(F)(F)F)c2)c(F)c1F | – | – | 0.01 to 100 nM | 0.01 to 100 nM | – |
| CN1CCC(COCc2cc(-c3ccncc3)cc(C(F)(F)F)c2)(c2ccccc2)CC1 | 0.01 to 100 nM | – | – | – | IC50 [2]: 0.01 to 100 nM |
| CN1CCC(COCc2cc(-c3ccc(C#N)cc3)cc(C(F)(F)F)c2)(c2ccc(F)cc2F)CC1 | – | – | 0.01 to 100 nM | – | IC50 [2]: 0.01 to 100 nM |
| COc1ccc(-c2cc(COCC3(c4ccccc4)CCN(C)CC3)cc(C(F)(F)F)c2)cc1C | – | – | 0.01 to 100 nM | – | IC50 [2]: 0.01 to 100 nM |
| Cc1cc(-c2cc(COCC3(c4ccccc4)CCNCC3)cc(C(F)(F)F)c2)ccc1C#N | – | – | 0.01 to 100 nM | 0.01 to 100 nM | – |
| CCCCc1ccc(-c2cc(COCC3(c4ccccc4)CCNCC3)cc(C(F)(F)F)c2)cc1 | – | – | 0.01 to 100 nM | 0.01 to 100 nM | – |
| COc1ccc(-c2nnn(C)n2)cc1COCC1(c2ccccc2)CCNCC1 | > 300 nM | 100 to 300 nM | – | – | – |
| Nc1ccc(-c2cc(COCC3(c4ccccc4)CCNCC3)cc(C(F)(F)F)c2)cn1 | 0.01 to 100 nM | 0.01 to 100 nM | – | – | – |
| Fc1cc(-c2cc(COCC3(c4ccccc4)CCNCC3)cc(C(F)(F)F)c2)c(Cl)cn1 | 0.01 to 100 nM | 0.01 to 100 nM | – | – | – |
| N#Cc1ccc(-c2cc(COCC3(c4ccccc4)CCNCC3)cc(C(F)(F)F)c2)cc1F | – | – | 0.01 to 100 nM | 0.01 to 100 nM | – |
| FC(F)(F)c1cc(COCC2(c3ccccc3)CCNCC2)cc(-c2ccc(Cl)c(Cl)c2)c1 | 0.01 to 100 nM | 0.01 to 100 nM | – | – | – |
| O=[N+]([O-])c1ccc(-c2cc(COCC3(c4ccccc4)CCNCC3)cc(C(F)(F)F)c2)cc1 | – | – | 0.01 to 100 nM | 0.01 to 100 nM | – |
| N#Cc1ccc(-c2cc(COCC3(c4ccc(F)c(F)c4)CCNCC3)cc(C(F)(F)F)c2)cc1 | – | – | 0.01 to 100 nM | 0.01 to 100 nM | – |
| COc1ccc(F)cc1-c1cc(COCC2(c3ccccc3)CCNCC2)cc(C(F)(F)F)c1 | – | – | 100 to 300 nM | 0.01 to 100 nM | – |
| COc1ccc(-n2nnnc2C)cc1COCC1(c2ccccc2)CCNCC1 | 0.01 to 100 nM | 0.01 to 100 nM | – | – | – |
| Fc1ccc(-c2cc(COCC3(c4ccccc4)CCNCC3)cc(C(F)(F)F)c2)cc1 | 0.01 to 100 nM | 0.01 to 100 nM | – | – | – |

Source: patent publication US20070249607A1, “NK-1 AND SEROTONIN TRANSPORTER INHIBITORS” (Bristol-Myers Squibb Company, priority 2006, published 2007)
